Measurements from US20090062294A1, “HETEROARYL-SUBSTITUTED UREA MODULATORS OF FATTY ACID AMIDE HYDROLASE” (priority 2007, published 2009).
Where a name gives a salt, the structure may show the parent alone.

Assays:
[1] = biological target: T1, rat FAAH (Rattus norvegicus, UniProt P97612); assay: Assay Method 2: FAAH assay, 3H-anandamide hydrolysis in homogenate of SK-N-MC cells transfected with rat FAAH; assay type: biochemical; settings: average of results, > = solubility limit or highest concentration tested
T1 sequence (P97612 1-579): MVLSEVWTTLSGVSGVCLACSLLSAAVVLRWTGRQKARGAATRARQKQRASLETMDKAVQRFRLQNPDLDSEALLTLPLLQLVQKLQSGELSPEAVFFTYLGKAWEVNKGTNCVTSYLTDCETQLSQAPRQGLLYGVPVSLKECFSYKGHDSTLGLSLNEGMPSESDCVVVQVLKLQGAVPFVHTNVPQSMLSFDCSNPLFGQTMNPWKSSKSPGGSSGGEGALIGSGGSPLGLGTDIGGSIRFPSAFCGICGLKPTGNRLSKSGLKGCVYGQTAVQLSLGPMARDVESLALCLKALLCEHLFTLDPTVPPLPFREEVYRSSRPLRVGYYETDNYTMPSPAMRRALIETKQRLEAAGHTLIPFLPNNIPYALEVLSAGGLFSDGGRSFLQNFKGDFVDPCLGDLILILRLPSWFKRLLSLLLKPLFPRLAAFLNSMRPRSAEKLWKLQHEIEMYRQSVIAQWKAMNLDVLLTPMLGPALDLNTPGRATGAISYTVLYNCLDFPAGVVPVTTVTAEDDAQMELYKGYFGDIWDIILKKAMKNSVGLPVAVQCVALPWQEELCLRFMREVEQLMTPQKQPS
Method in brief: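 Homogenate of SK-N-MC cells stably transfected with rat FAAH cDNA (G418-selected clones) in pH 9 Tris/EDTA/glycerol/Triton buffer. Incubated with compound and 80 nM final [3H]-anandamide for 1 h at rt. Released [3H]-ethanolamine separated from substrate on activated charcoal filters and counted by scintillation.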

[2] = biological target: T2, FAAH (Homo sapiens, UniProt O00519); assay: Assay Method 1: FAAH assay, 3H-anandamide hydrolysis in homogenate of T84 cells or SK-N-MC cells transfected with human FAAH; assay type: biochemical; settings: average of results, > = solubility limit or highest concentration tested
T2 sequence (O00519 1-579): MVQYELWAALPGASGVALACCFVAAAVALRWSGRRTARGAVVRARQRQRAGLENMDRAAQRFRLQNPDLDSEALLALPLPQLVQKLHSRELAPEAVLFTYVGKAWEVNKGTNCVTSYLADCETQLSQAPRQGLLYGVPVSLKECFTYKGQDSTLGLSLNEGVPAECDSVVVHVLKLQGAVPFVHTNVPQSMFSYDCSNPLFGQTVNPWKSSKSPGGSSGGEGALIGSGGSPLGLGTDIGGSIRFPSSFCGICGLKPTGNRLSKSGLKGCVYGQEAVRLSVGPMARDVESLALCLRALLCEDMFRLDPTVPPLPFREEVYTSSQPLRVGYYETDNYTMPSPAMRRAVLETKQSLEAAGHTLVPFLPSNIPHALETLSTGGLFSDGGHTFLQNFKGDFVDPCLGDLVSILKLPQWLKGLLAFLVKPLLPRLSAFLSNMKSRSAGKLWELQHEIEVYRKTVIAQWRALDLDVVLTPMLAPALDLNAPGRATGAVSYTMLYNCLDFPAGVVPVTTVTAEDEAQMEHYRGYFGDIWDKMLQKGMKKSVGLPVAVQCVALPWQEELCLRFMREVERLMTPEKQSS
Method in brief: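 Homogenates of T84 cells or of SK-N-MC cells stably transfected with human FAAH (G418-selected) were prepared in pH 9 Tris/EDTA/glycerol/Triton buffer. They were incubated with compound and 80 nM final ^3H-anandamide for 1 h at rt. Released ^3H-ethanolamine was separated on activated charcoal and counted by scintillation.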

SMILES | IC50 [1] [nM] | IC50 [2] [nM]
O=C(Nc1ccon1)N1CCN(Cc2ccc(F)c(Oc3ccccc3)c2)CC1 [Example 49, 4-(4-Fluoro-3-phenoxy-benzyl)-piperazine-1-carboxylic acid isoxazol-3-ylamide trifluoroacetic acid salt] | 360 | 2000
O=C(Nc1noc2ccccc12)N1CCN(Cc2cccc(Oc3ccc(Cl)c(Cl)c3)c2)CC1 [Example 50, 4-[3-(3,4-Dichloro-phenoxy)-benzyl]-piperazine-1-carboxylic acid benzo[d]isoxazol-3-ylamide trifluoroacetic acid salt] | 18 | 42
O=C(Nc1noc2ccccc12)N1CCC(Cc2ccc3c(c2)OC(F)(F)O3)CC1 [Example 62, N-1,2-Benzisoxazol-3-yl-4-[(2,2-difluoro-1,3-benzodioxol-5-yl)methyl]piperidine-1-carboxamide] | 35 | 41
Cc1ccccc1C#Cc1cccc(CN2CCN(C(=O)Nc3noc4ccccc34)CC2)c1 [Example 63, 4-(3-o-Tolylethynyl-benzyl)-piperazine-1-carboxylic acid benzo[d]isoxazol-3-ylamide] | 77 | 70
O=C(Nc1noc2ccccc12)N1CCN(Cc2cccc(C#Cc3ccccc3C(F)(F)F)c2)CC1 [Example 64, N-1,2-Benzisoxazol-3-yl-4-(3-{[2-(trifluoromethyl)-phenyl]-ethynyl}benzyl)-piperazine-1-carboxamide] | 80 | 105
COc1ccccc1C#Cc1cccc(CN2CCN(C(=O)Nc3noc4ccccc34)CC2)c1 [Example 65, N-1,2-Benzisoxazol-3-yl-4-{3-[(2-methoxyphenyl)-ethynyl]-benzyl}-piperazine-1-carboxamide] | 300 | 395
O=C(Nc1noc2ccccc12)N1CCN(Cc2cccc(C#Cc3ccccc3F)c2)CC1 [Example 66, N-1,2-Benzisoxazol-3-yl-4-{3-[(2-fluorophenyl)ethynyl]-benzyl}-piperazine-1-carboxamide] | 46 | 24
O=C(Nc1noc2ccccc12)N1CCN(Cc2cccc(C#Cc3ccccc3Br)c2)CC1 [Example 67, N-1,2-Benzisoxazol-3-yl-4-{3-[(2-bromophenyl)-ethynyl]benzyl}-piperazine-1-carboxamide] | 52 | 6
C#Cc1cccc(CN2CCN(C(=O)Nc3noc4ccccc34)CC2)c1 [Example 68, 4-(3-Ethynyl-benzyl)-piperazine-1-carboxylic acid benzo[d]isoxazol-3-ylamide] | 315 | 16
CN(C)CC#Cc1cccc(CN2CCN(C(=O)Nc3noc4ccccc34)CC2)c1 [Example 69, N-1,2-Benzisoxazol-3-yl-4-{3-[3-(dimethylamino)prop-1-yn-1-yl]benzyl}-piperazine-1-carboxamide] | 2000 | 44
O=C(Nc1noc2ccccc12)N1CCN(Cc2cccc(C#CC3CCCCC3)c2)CC1 [Example 70, N-1,2-Benzisoxazol-3-yl-4-[3-(cyclohexylethynyl)benzyl]-piperazine-1-carboxamide] | 46 | 46
O=C(Nc1noc2ccccc12)N1CCN(Cc2cccc(C#CC3CCCC3)c2)CC1 [Example 71, N-1,2-Benzisoxazol-3-yl-4-[3-(cyclopentylethynyl)benzyl]-piperazine-1-carboxamide] | 50 | 13
O=C(Nc1noc2ccccc12)N1CCN(Cc2cccc(C#Cc3ccccc3Cl)c2)CC1 [Example 72, N-1,2-Benzisoxazol-3-yl-4-{3-[(2-chlorophenyl)-ethynyl]benzyl}-piperazine-1-carboxamide] | 30 | 24
O=C(Nc1noc2ccccc12)N1CCN(Cc2cccc(C#Cc3cccc(Cl)c3)c2)CC1 [Example 73, N-1,2-Benzisoxazol-3-yl-4-{3-[(3-chlorophenyl)ethynyl]benzyl}-piperazine-1-carboxamide] | 33 | 24
O=C(Nc1noc2ccccc12)N1CCN(Cc2cccc(C#Cc3ccc(Cl)cc3)c2)CC1 [Example 74, N-1,2-Benzisoxazol-3-yl-4-{3-[(4-chlorophenyl)ethynyl]benzyl}-piperazine-1-carboxamide] | 325 | 410
O=C(Nc1noc2ccccc12)N1CCN(Cc2cccc(C#Cc3ccc(Cl)c(Cl)c3)c2)CC1 [Example 75, N-1,2-Benzisoxazol-3-yl-4-{3-[(3,4-dichlorophenyl)ethynyl]-benzyl}-piperazine-1-carboxamide] | 110 | 123

Results, then the compound that gave them:

IC50 [1] [nM] | IC50 [2] [nM] | SMILES
66 | 1140 | O=C(Nc1ccon1)N1CCN(Cc2cccc(Oc3ccc(Cl)c(Cl)c3)c2)CC1 [Example 47, 4-[3-(3,4-Dichloro-phenoxy)-benzyl]-piperazine-1-carboxylic acid isoxazol-3-ylamide trifluoroacetic acid salt]
49 | 627 | O=C(Nc1ccon1)N1CCN(Cc2cccc(Oc3cccc(C(F)(F)F)c3)c2)CC1 [Example 48, 4-[3-(3-Trifluoromethyl-phenoxy)-benzyl]-piperazine-1-carboxylic acid isoxazol-3-ylamide trifluoroacetic acid salt]
29 | 28 | O=C(Nc1noc2ccccc12)N1CCN(Cc2cccc(Oc3cccc(C(F)(F)F)c3)c2)CC1 [Example 51, 4-[3-(3-Trifluoromethyl-phenoxy)-benzyl]-piperazine-1-carboxylic acid benzo[d]isoxazol-3-ylamide trifluoroacetic acid salt]
322 | 74 | O=C(Nc1noc2ccccc12)N1CCN(Cc2cccc(OC(F)(F)F)c2)CC1 [Example 52, 4-(3-Trifluoromethoxy-benzyl)-piperazine-1-carboxylic acid benzo[d]isoxazol-3-ylamide trifluoroacetic acid salt]
50 | 370 | O=C(Nc1cc[nH]n1)N1CCN(Cc2cccc(Oc3ccc(Cl)c(Cl)c3)c2)CC1 [Example 54, 4-[3-(3,4-Dichloro-phenoxy)-benzyl]-piperazine-1-carboxylic acid (1H-pyrazol-3-yl)-amide trifluoroacetic acid salt]
764 | 7750 | O=C(Nc1cc[nH]n1)N1CCN(Cc2cccc(Oc3cccc(C(F)(F)F)c3)c2)CC1 [Example 55, 4-[3-(3-Trifluoromethyl-phenoxy)-benzyl]-piperazine-1-carboxylic acid (1H-pyrazol-3-yl)-amide trifluoroacetic acid salt]
550 | 1500 | O=C(Nc1cc[nH]n1)N1CCN(Cc2ccc(F)c(Oc3ccccc3)c2)CC1 [Example 56, 4-(4-Fluoro-3-phenoxy-benzyl)-piperazine-1-carboxylic acid (1H-pyrazol-3-yl)-amide trifluoroacetic acid salt]
22 | 270 | O=C(Nc1cnccn1)N1CCN(Cc2cccc(Oc3ccc(Cl)c(Cl)c3)c2)CC1 [Example 59, 4-[3-(3,4-Dichloro-phenoxy)-benzyl]-piperazine-1-carboxylic acid pyrazin-2-ylamide trifluoroacetic acid salt]
16 | 166 | O=C(Nc1cnccn1)N1CCN(Cc2cccc(Oc3cccc(C(F)(F)F)c3)c2)CC1 [Example 60, 4-[3-(3-Trifluoromethyl-phenoxy)-benzyl]-piperazine-1-carboxylic acid pyrazin-2-ylamide trifluoroacetic acid salt]
7000 | 2300 | O=C(Nc1cnccn1)N1CCN(Cc2cccc(OC(F)(F)F)c2)CC1 [Example 61, 4-(3-Trifluoromethoxy-benzyl)-piperazine-1-carboxylic acid pyrazin-2-ylamide trifluoroacetic acid salt]
